Reference: US9303018B2, “Inhibitors of leukotriene production” (Boehringer Ingelheim International GmbH, priority 2013, dated 2016)

Columns and labels:
[1] = tested on: synthesis of LTB4 in human whole blood; assay: LTB4 production inhibition assay in human whole blood (HWB); type: cell-based; details: heparinized human whole blood, calcimycin 20 μM stimulated, plasma LTB4 by HTRF
Procedure: The compounds of the invention are additionally tested in a human whole blood (HWB) assay to determine their ability to inhibit the synthesis of LTB4 in a cellular system. Compounds are combined with heparinized human whole blood and incubated for 15 minutes at 37° C. Calcimycin (20 μM final, prepared in phosphate-buffered saline, pH 7.4) is then added and the mixture is incubated for another 30 minutes at 37° C. The samples are centrifuged for 5 min at low speed (1500×g) and the plasma layer is removed. Plasma LTB4 concentrations are then measured using an antibody-based homogenous time-resolved fluorescence method (CisBio, Bedford, Mass.).

human LTA4 hydrolase = human LTA4 hydrolase (Homo sapiens (Human), UniProt P09960); assay: LTA4H Enzyme assay (peptidase, Arg-AMC cleavage); type: biochemical; details: LTA4H enzyme 1 nM, Arg-AMC substrate 50 μM, room temperature 1 h, fluorescence
Procedure: The compounds of the invention are assessed for the ability to interact with human LTA4 hydrolase in an enzymatic assay that measures the ability of the enzyme to cleave the peptide bond of arginyl-aminomethylcoumarin (Arg-AMC). LTA4H Enzyme (1 nM final), Arg-AMC substrate (50 μM final), and compound are combined in a reaction buffer (50 mM Tris-HCl (pH 7.5), 100 mM KCl, 0.5% bovine serum albumin) at room temperature for 1 h. The formation of product is assessed by measuring the fluorescence of aminomethylcoumarin product (excitation wavelength 380 nm/emission wavelength 460 nm).

Chain of human LTA4 hydrolase (P09960 whole entry): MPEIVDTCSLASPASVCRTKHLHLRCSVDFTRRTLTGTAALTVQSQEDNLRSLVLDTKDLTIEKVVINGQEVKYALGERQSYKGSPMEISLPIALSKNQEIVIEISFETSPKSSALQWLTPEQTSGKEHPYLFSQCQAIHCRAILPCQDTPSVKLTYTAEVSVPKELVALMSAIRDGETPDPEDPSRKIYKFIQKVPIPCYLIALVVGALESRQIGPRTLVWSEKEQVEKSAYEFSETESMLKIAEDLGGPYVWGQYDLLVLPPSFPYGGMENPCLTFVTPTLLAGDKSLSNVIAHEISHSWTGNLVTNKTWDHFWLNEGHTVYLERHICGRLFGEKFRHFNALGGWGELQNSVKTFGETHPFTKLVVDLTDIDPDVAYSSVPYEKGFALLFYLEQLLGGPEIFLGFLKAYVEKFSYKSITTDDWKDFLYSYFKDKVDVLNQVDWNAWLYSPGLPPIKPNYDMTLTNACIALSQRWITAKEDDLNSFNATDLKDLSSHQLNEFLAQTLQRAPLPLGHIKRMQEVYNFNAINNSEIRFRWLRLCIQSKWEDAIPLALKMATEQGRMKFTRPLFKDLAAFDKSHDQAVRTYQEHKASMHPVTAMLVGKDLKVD

| Structure (SMILES) | IC50 [1] | IC50 (human LTA4 hydrolase) |
| --- | --- | --- |
| OC1CN(Cc2cnc3cc(Oc4ccc(-c5ccn[nH]5)cn4)ccc3c2)C1 [Example 3, 1-{7-[5-(2H-Pyrazol-3-yl)-pyridin-2-yloxy]-quinolin-3-ylmethyl}-azetidin-3-ol] | 430 nM | 4 nM |
| O=C1[C@@H](O)CCN1C1CCN(Cc2cnc3cc(Oc4ccc(-c5ccn[nH]5)cn4)ccc3c2)CC1 [Example 5, (S)-3-Hydroxy-1-(1-{7-[5-(2H-pyrazol-3-yl)-pyridin-2-yloxy]-quinolin-3-ylmethyl}-piperidin-4-yl)-pyrrolidin-2-one] | 370 nM | 2.6 nM |
| O=C1OCCN1C1CCN(Cc2cnc3cc(Oc4ccc(-c5ccn[nH]5)cn4)ccc3c2)CC1 [Example 6, 3-(1-{7-[5-(2H-Pyrazol-3-yl)-pyridin-2-yloxy]-quinolin-3-ylmethyl}-piperidin-4-yl)-oxazolidin-2-one] | 270 nM | 1.9 nM |
| OC1CCN(Cc2cnc3cc(Oc4ccc(-c5ccn[nH]5)cn4)ccc3c2)CC1 [Example 7, l-{7-[5-(2H-Pyrazol-3-yl)-pyridin-2-yloxy]-quinolin-3-ylmethyl}-piperidin-4-ol] | 500 nM | 3.7 nM |
| CC1(O)CN(Cc2cnc3cc(Oc4ccc(-c5ccn[nH]5)cn4)ccc3c2)C1 [Example 8, 3-Methyl-1-{7-[5-(2H-pyrazol-3-yl)-pyridin-2-yloxy]-quinolin-3-ylmethyl}-azetidin-3-ol] | 410 nM | 2.4 nM |
| CN(C(=O)CO)[C@H]1CCN(Cc2cnc3cc(Oc4ccc(-c5ccn[nH]5)cn4)ccc3c2)C1 [Example 11, 2-Hydroxy-N-methyl-N-((S)-1-{7-[5-(2H-pyrazol-3-yl)-pyridin-2-yloxy]-quinolin-3-ylmethyl}-pyrrolidin-3-yl)-acetamide] | 250 nM | 2.6 nM |
| O[C@H]1CCN(Cc2cnc3cc(Oc4ccc(-c5ccn[nH]5)cn4)ccc3c2)C1 [Example 13, (S)-1-{7-[5-(2H-Pyrazol-3-yl)-pyridin-2-yloxy]-quinolin-3-ylmethyl)-pyrrolidin-3-ol] | 220 nM | 2.5 nM |
| CN(C(=O)CO)C1CCN(Cc2cnc3cc(Oc4ccc(-c5ccn[nH]5)cn4)ccc3c2)CC1 [Example 15, 2-Hydroxy-N-methyl-N-(1-{7-[5-(2H-pyrazol-3-yl)-pyridin-2-yloxy]-quinolin-3-ylmethyl}-piperidin-4-yl)-acetamide] | 380 nM | 3.5 nM |
| O[C@@H]1CCN(Cc2cnc3cc(Oc4ccc(-c5ccn[nH]5)cn4)ccc3c2)C1 [Example 17, (R)-1-{7-[5-(2H-Pyrazol-3-yl)-pyridin-2-yloxy]-quinolin-3-ylmethyl}-pyrrolidin-3-ol] | 230 nM | 1.7 nM |
| C[C@H](O)C(=O)N1CCN(Cc2cnc3cc(Oc4ccc(-c5ccn[nH]5)cn4)ccc3c2)CC1 [Example 18] | 180 nM | 1.1 nM |
| CN(C)C(=O)C1CCN(Cc2cnc3cc(Oc4ccc(-c5ccn[nH]5)cn4)ccc3c2)CC1 [Example 19, 1-{7-[5-(2H-Pyrazol-3-yl)-pyridin-2-yloxy]-quinolin-3-ylmethyl}-piperidine-4-carboxylic acid dimethylamide] | 480 nM | 1.5 nM |
| CC(C)(O)C(=O)N1CCN(Cc2cnc3cc(Oc4ccc(-c5ccn[nH]5)cn4)ccc3c2)CC1 [Example 20, 2-Hydroxy-2-methyl-1-(4-{7-[5-(2H-pyrazol-3-yl)-pyridin-2-yloxy]-quinolin-3-ylmethyl)-piperazin-1-yl)-propan-1-one] | 230 nM | 1.6 nM |
| CC(C)(C)C(=O)N1CCN(Cc2cnc3cc(Oc4ccc(-c5ccn[nH]5)cn4)ccc3c2)CC1 [Example 21, 2,2-Dimethyl-1-(4-{7-[5-(2H-pyrazol-3-yl)-pyridin-2-yloxy]-quinolin-3-ylmethyl}-piperazin-1-yl)-propan-1-one] | 740 nM | 1.7 nM |
| O=C(C1CC1)N1CCN(Cc2cnc3cc(Oc4ccc(-c5ccn[nH]5)cn4)ccc3c2)CC1 [Example 22, Cyclopropyl-(4-{7-[5-(2H-pyrazol-3-yl)-pyridin-2-yloxy]-quinolin-3-ylmethyl}-piperazin-1-yl)-methanone] | 230 nM | 0.93 nM |

The remaining compounds from weak to strong by IC50 [1], led by results:

| IC50 [1] | IC50 (human LTA4 hydrolase) | Structure (SMILES) |
| --- | --- | --- |
| 180 nM | 1.8 nM | CN(C(=O)CO)[C@@H]1CCN(Cc2cnc3cc(Oc4ccc(-c5ccn[nH]5)cn4)ccc3c2)C1 [Example 12, 2-Hydroxy-N-methyl-N-((R)-1-{7-[5-(2H-pyrazol-3-yl)-pyridin-2-yloxy]-quinolin-3-ylmethyl}-pyrrolidin-3-yl)-acetamide] |
| 170 nM | 1.4 nM | COCC(=O)N1CCN(Cc2cnc3cc(Oc4ccc(-c5ccn[nH]5)cn4)ccc3c2)CC1 [Example 4, 2-Methoxy-1-(4-{7-[5-(2H-pyrazol-3-yl)-pyridin-2-yloxy]-quinolin-3-ylmethyl}-piperazin-1-yl)-ethanone] |
| 160 nM | 0.69 nM | O=C(CO)N1CCN(Cc2cnc3cc(Oc4ccc(-c5ccn[nH]5)cn4)ccc3c2)CC1 [Example 1, 2-Hydroxy-1-(4-{7-[5-(2H-pyrazol-3-yl)-pyridin-2-yloxy]-quinolin-3-ylmethyl}-piperazin-1-yl)-ethanone] |
| 160 nM | 0.54 nM | CC(C)C(=O)N1CCN(Cc2cnc3cc(Oc4ccc(-c5ccn[nH]5)cn4)ccc3c2)CC1 [Example 23] |
| 150 nM | 0.6 nM | CC(=O)N1CCN(Cc2cnc3cc(Oc4ccc(-c5ccn[nH]5)cn4)ccc3c2)CC1 [Example 2, 1-(4-{7-[5-(2H-Pyrazol-3-yl)-pyridin-2-yloxy]-quinolin-3-ylmethyl}-piperazin-1-yl)-ethanone] |
| 150 nM | 0.88 nM | CN(Cc1cnc2cc(Oc3ccc(-c4ccn[nH]4)cn3)ccc2c1)[C@@H]1CCN(C(=O)CO)C1 [Example 9, 2-Hydroxy-1-[(R)-3-(methyl-{7-[5-(2H-pyrazol-3-yl)-pyridin-2-yloxy]-quinolin-3-ylmethyl}-amino)-pyrrolidin-1-yl]-ethanone] |
| 140 nM | 1.3 nM | CN(Cc1cnc2cc(Oc3ccc(-c4ccn[nH]4)cn3)ccc2c1)[C@H]1CCN(C(=O)CO)C1 [Example 10, 2-Hydroxy-1-[(S)-3-(methyl-{7-[5-(2H-pyrazol-3-yl)-pyridin-2-yloxy]-quinolin-3-ylmethyl}-amino)-pyrrolidin-1-yl]-ethanone] |
| 110 nM | 1.1 nM | CC(=O)N1CC(CN(C)Cc2cnc3cc(Oc4ccc(-c5ccn[nH]5)cn4)ccc3c2)C1 [Example 16, 1-{3-[(Methyl-{7-[5-(2H-pyrazol-3-yl)-pyridin-2-yloxy]-quinolin-3-ylmethyl}-amino)-methyl]-azetidin-1-yl}-ethanone] |
| 86 nM | 0.44 nM | CCC(=O)N1CCN(Cc2cnc3cc(Oc4ccc(-c5ccn[nH]5)cn4)ccc3c2)CC1 [Example 14, 1-(4-{7-[5-(2H-Pyrazol-3-yl)-pyridin-2-yloxy]-quinolin-3-ylmethyl}-piperazin-1-yl)-propan-1-one] |
